Source: US9751854B2 (Millennium Pharmaceuticals, Inc., priority 2014, dated 2017)

Biological target: human VPS34 (Homo sapiens (Human), UniProt Q8NEB9)
Assay: Human VPS34 enzyme assay (Adapta TR-FRET ADP detection)
Format: biochemical
Set-up: Percent Inhibition: dose or concentration left out as unconfirmed
Conditions: for IC50: IC50 range class

Sequence of human VPS34 (Q8NEB9 whole entry): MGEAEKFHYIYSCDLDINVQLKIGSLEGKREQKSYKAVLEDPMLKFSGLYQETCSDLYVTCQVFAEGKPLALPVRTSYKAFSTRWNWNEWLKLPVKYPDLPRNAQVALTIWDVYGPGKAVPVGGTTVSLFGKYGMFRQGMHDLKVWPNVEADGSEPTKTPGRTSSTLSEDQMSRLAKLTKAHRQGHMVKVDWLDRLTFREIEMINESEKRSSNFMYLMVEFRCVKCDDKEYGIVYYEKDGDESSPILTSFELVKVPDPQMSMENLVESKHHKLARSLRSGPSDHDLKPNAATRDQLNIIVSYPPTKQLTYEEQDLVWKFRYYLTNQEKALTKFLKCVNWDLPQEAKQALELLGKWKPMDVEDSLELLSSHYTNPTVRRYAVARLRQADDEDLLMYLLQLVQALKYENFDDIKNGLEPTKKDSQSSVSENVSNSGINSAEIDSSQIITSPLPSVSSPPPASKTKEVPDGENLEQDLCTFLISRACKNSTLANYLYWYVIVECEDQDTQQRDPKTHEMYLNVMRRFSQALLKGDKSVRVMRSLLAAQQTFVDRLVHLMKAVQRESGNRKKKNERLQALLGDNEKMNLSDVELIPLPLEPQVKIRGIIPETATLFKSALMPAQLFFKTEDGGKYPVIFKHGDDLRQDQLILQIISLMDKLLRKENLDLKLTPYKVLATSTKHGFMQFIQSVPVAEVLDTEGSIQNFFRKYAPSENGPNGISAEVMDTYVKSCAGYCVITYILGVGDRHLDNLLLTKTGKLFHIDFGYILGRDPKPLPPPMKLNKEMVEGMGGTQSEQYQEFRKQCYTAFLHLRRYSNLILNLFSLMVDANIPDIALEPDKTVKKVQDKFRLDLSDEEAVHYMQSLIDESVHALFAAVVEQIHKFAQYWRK

| SMILES | IC50 [nM] | Percent Inhibition [%] |
| --- | --- | --- |
| CCc1c(-c2ccnc(NC(=O)C3CC3)c2)cnc(Cl)c1NS(=O)(=O)c1ccc(F)cc1F [Compound I-278, N-(6-chloro-5-{[(2,4-difluorophenyl)sulfonyl]amino}-4-ethyl-3,4′-bipyridin-2′-yl)cyclopropanecarboxamide] | 10 to 50 | – |
| Cc1nccc(Nc2cc(-c3cnc(C)c(C(N)=O)c3)ccn2)n1 [Compound I-280, 6-methyl-2′-[(2-methylpyrimidin-4-yl)amino]-3,4′-bipyridine-5-carboxamide] | > 100 | – |
| Cc1ncc(-c2ccnc(N)c2)cc1NS(=O)(=O)N(C)C [Compound I-281, N′-(2′-amino-6-methyl-3,4′-bipyridin-5-yl)-N,N-dimethylsulfuric diamide] | > 100 | – |
| CN(C)c1ncc(-c2ccnc(Nc3ccncn3)c2)cc1C(=O)N(C)C12CC(C1)C2 [Compound I-284, N-(bicyclo[1.1.1]pent-1-yl)-6-(dimethylamino)-N-methyl-2′-(pyrimidin-4-ylamino]-3,4′-bipyridine-5-carboxamide] | 10 to 50 | – |
| Cc1nccc(Nc2cc(-c3cnc(C)c(C(=O)NCC4CC4)c3)ccn2)n1 [Compound I-285, N-(cyclopropylmethyl)-6-methyl-2′-((2-methylpyrimidin-4-yl)amino)-[3,4′-bipyridine]-5-carboxamide] | 10 to 50 | – |
| Cc1nccc(Nc2cc(-c3cnc(C)c(NS(=O)(=O)N(C)C)c3)ccn2)n1 [Compound I-286, N,N-dimethyl-N′-{6-methyl-2′-[(2-methylpyrimidin-4-yl)amino]-3,4′-bipyridine-5-yl}sulfuric diamide] | < 10 | – |
| Cc1c(-c2ccnc(N)c2)cnc(Cl)c1NS(=O)(=O)c1ccc(F)cc1F [Compound I-287, N′-(2′-amino-6-chloro-4-methyl-3,4′-bipyridin-5-yl)-2,4-difluorobenzenesulfonamide] | > 100 | 91 |
| Cc1nccc(Nc2cc(-c3cnc(C)c(N4CCCN(C)S4(=O)=O)c3)ccn2)n1 [Compound I-288, 6-methyl-5-(6-methyl-1,1-dioxido-1,2,6-thiadiazinan-2-yl)-N-(2-methylpyrimidin-4-yl)-3,4′-bipyridin-2′-amine] | 10 to 50 | – |
| Cc1nc(Nc2cc(-c3cnc(C)c(NS(=O)(=O)c4ccc(F)cc4F)c3)ccn2)ccc1C#N [Compound I-289, N-{2′-[(5-cyano-6-methylpyridin-2-yl)amino]-6-methyl-3,4′-bipyridin-5-yl}-2,4-difluorobenzenesulfonamide] | < 10 | – |
| Cc1nccc(Nc2cc(-c3cnc(Cl)c(NS(=O)(=O)c4ccc(F)cc4F)c3C)c(F)cn2)n1 [Compound I-294, N-{6-chloro-5′-fluoro-4-methyl-2′-[(2-methylpyrimidin-4-yl)amino]-3,4′-bipyridin-5-yl}-2,4-difluorobenzenesulfonamide] | < 10 | – |
| Cc1c(-c2ccnc(Nc3ccnc(C4CC4)n3)c2)cnc(Cl)c1NS(=O)(=O)c1ccc(F)cc1F [Compound I-296, N-{6-chloro-2′-[(2-cyclopropylpyrimidin-4-yl)amino]-4-methyl-3,4′-bipyridin-5-yl}-2,4-difluorobenzenesulfonamide] | 10 to 50 | – |
| Cc1ncc(-c2ccnc(Nc3ccccn3)c2)cc1NS(=O)(=O)c1ccc(F)cc1F [Compound I-297, 2,4-difluoro-N-[6-methyl-2′-(pyridin-2-ylamino)-3,4′-bipyridin-5-yl]benzenesulfonamide] | 10 to 50 | – |
| Cc1c(-c2ccnc(Nc3ncc(C#N)cn3)c2)cnc(Cl)c1NS(=O)(=O)c1ccc(F)cc1F [Compound I-300, N-{6-chloro-2′-[(5-cyanopyrimidin-2-yl)amino]-4-methyl-3,4′-bipyridin-5-yl}-2,4-difluorobenzenesulfonamide] | 10 to 50 | – |
| Cc1ncc(-c2ccnc(Nc3ccn(C)n3)c2)cc1NS(=O)(=O)c1ccc(F)cc1F [Compound I-301, 2,4-difluoro-N-{6-methyl-2′-[(1-methyl-1H-pyrazole-3-yl)amino]-3,4′-bipyridin-5-yl]benzenesulfonamide] | 10 to 50 | – |
| Cc1ncc(-c2ccnc(NC(=O)C3CCC3)c2)cc1NS(=O)(=O)c1ccc(F)cc1F [Compound I-305, N-(5-{[(2,4-difluorophenyl)sulfonyl]amino}-6-methyl-3,4′-bipyridin-2′-yl)cyclobutanecarboxamide] | 10 to 50 | – |
| Cc1ccc(Nc2cc(-c3cnc(C)c(NS(=O)(=O)c4ccc(F)cc4F)c3)ccn2)nn1 [Compound I-307, 2,4-difluoro-N-{6-methyl-2′-[(6-methylpyridazin-3-yl)amino]-3,4′-bipyridin-5-yl}benzenesulfonamide] | 10 to 50 | – |
| Cc1c(-c2ccnc(Nc3ccncn3)c2)cnc(Cl)c1NS(=O)(=O)c1ccccc1 [Compound I-309, N-[6-chloro-4-methyl-2′-(pyrimidin-4-ylamino)-3,4′-bipyridin-5-yl]benzenesulfonamide] | < 10 | – |
| Cc1ncc(-c2ccnc(Nc3cnccn3)c2)cc1NS(=O)(=O)c1ccc(F)cc1F [Compound I-310, 2,4-difluoro-N-[6-methyl-2′-(pyrazin-2-ylamino)-3,4′-bipyridin-5-yl]benzenesulfonamide] | < 10 | – |
| Cc1ncc(-c2ccnc(NC(=O)N3CCCC3)c2)cc1NS(=O)(=O)c1ccc(F)cc1F [Compound I-313, N-(5-{[(2,4-difluorophenyl)sulfonyl]amino}-6-methyl-3,4′-bipyridin-2′-yl)pyrrolidine-1-carboxamide] | 10 to 50 | – |
| Cc1nccc(Nc2cc(-c3cnc(Cl)c(N(C)C)c3C)ccn2)n1 [Compound I-314, 6-chloro-N5,N5,4-trimethyl-N2′-(2-methylpyrimidin-4-yl)-3,4′-bipyridine-2′,5-diamine] | 10 to 50 | – |
| Cc1nccc(Nc2cc(-c3cnc(C)c(C(=O)N4CCCC4)c3)ccn2)n1 [Compound I-315, {6-methyl-2′-[(2-methylpyrimidin-4-yl)amino]-3,4′-bipyridin-5-yl}(pyrrolidin-1-yl)methanone] | 10 to 50 | – |
| CC(=O)Nc1cc(-c2cncc(S(=O)(=O)NC3C4CC5CC(C4)CC3C5)c2)ccn1 (centres unmarked) [Compound I-318, N-[5-(adamantan-2-ylsulfamoyl)-3,4′-bipyridin-2′-yl]acetamide] | 10 to 50 | – |
| CC(=O)Nc1cc(-c2cncc(S(=O)(=O)NCc3ccccc3)c2)ccn1 [Compound I-321, N-[5-(benzylsulfamoyl)-3,4′-bipyridin-2′-yl]acetamide] | 50 to 100 | – |
| CC(=O)Nc1cc(-c2cnc(C)c(NS(=O)(=O)c3cccc(F)c3Cl)c2)ccn1 [Compound I-322, N-(5-{[(2-chloro-3-fluorophenyl)sulfonyl]amino}-6-methyl-3,4′-bipyridin-2′-yl)acetamide] | 10 to 50 | – |

Continued, values first:

| IC50 [nM] | Percent Inhibition [%] | SMILES |
| --- | --- | --- |
| 10 to 50 | – | Cc1nccc(Nc2cc(-c3cnc(O)c(S(=O)(=O)NC4CCC4)c3)ccn2)n1 [Compound I-279, N-cyclobutyl-6-hydroxy-2′-[(2-methylpyrimidin-4-yl)amino]3,4′-bipyridine-5-sulfonamide] |
| < 10 | – | Cc1c(-c2ccnc(Nc3ccncn3)c2)cnc(Cl)c1NS(=O)(=O)c1ccc(F)cc1F [Compound I-282, N-[6-chloro-4-methyl-2′-(pyrimidin-4-ylamino)-3,4′-bipyridin-5-yl]-2,4-difluorobenzenesulfonamide] |
| 10 to 50 | – | CC(=O)Nc1cc(-c2cnc(N(C)C)c(C(=O)NC34CC(C3)C4)c2)ccn1 [Compound I-283, 2′-Acetamido-N-(bicyclo[1.1.1]pent-1-yl)-6-(dimethylamino)-3,4′-bipyridine-5-carboxamide] |
| 10 to 50 | – | CC(=O)Nc1cc(-c2cnc(Cl)c(NS(=O)(=O)c3ccc(F)cc3Cl)c2C)ccn1 [Compound I-290, N-(6-chloro-5-{[(2-chloro-4-fluorophenyl)sulfonyl]amino}-4-methyl-3,4′-bipyridin-2′-yl)acetamide] |
| 10 to 50 | – | Cc1ncc(-c2ccnc(Nc3ccnc(C(F)(F)F)n3)c2)cc1C(=O)N1CCC1 [Compound I-292, azetidin-1-yl(6-methyl-2′-[(2-(trifluoromethyl)pyrimidin-4-yl]amino}-3,4′-bipyridin-5-yl)methanone] |
| 50 to 100 | – | Cc1nccc(Nc2cc(-c3cnc(Cl)c(NC(=O)c4ccc(F)cc4F)c3C)ccn2)n1 [Compound I-295, N-{6-chloro-4-methyl-2′-[(2-methylpyrimidin-4-yl)amino]-3,4′-bipyridin-5-yl}-2,4-difluorobenzamide] |
| 10 to 50 | – | CCN(CC)C(=O)c1cc(-c2ccnc(Nc3ccnc(C)n3)c2)cnc1C [Compound I-302, N,N-diethyl-6-methyl-2′-[(2-methylpyrimidin-4-yl)amino]-3,4′-bipyridine-5-carboxamide] |
| 10 to 50 | – | CN(C(=O)c1cc(-c2ccnc(Nc3ccncn3)c2)cnc1N)C12CC(C1)C2 [Compound I-303, 6-amino-N-(bicyclo[1.1.1]pent-1-yl)-N-methyl-2′-(pyrimidin-4-ylamino)-3,4′-bipyridine-5-carboxamide] |
| 10 to 50 | – | Cc1nccc(Nc2cc(-c3cnc(N(C)C)c(C(=O)N(C)C45CC(C4)C5)c3)ccn2)n1 [Compound I-306, N-(bicyclo[1.1.1]pent-1-yl)-6-(dimethylamino)-N-methyl-2′-((2-methylpyrimidin-4-yl)amino)-3,4′-bipyridine-5-carboxamide] |
| < 10 | – | Cc1ncc(-c2ccnc(NC(=O)C3CC3)c2)cc1NS(=O)(=O)N(C)C [Compound I-311, N-{5-[(dimethylsulfamoyl)amino]-6-methyl-3,4′-bipyridin-2′-yl)cyclopropanecarboxamide] |
| 10 to 50 | – | CC(=O)Nc1cc(-c2cnc(Cl)c(NS(=O)(=O)c3ccccc3)c2C)ccn1 [Compound I-312, N-{6-chloro-4-methyl-5-[(phenylsulfonyl)amino]-3,4′-bipyridin-2′-yl}acetamide] |
| > 100 | – | CC(=O)Nc1cc(-c2cnc(C)c(N(CCO)S(=O)(=O)c3ccc(F)cc3F)c2)ccn1 [Compound I-319, N-(5-{[(2,4-difluorophenyl)sulfonyl](2-hydroxyethyl)amino}-6-methyl-3,4′-bipyridin-2′-yl]acetamide] |
| 10 to 50 | – | CC(=O)Nc1cc(-c2cncc(N3CCCCS3(=O)=O)c2)ccn1 [Compound I-320, N-[5-(1,1-dioxido-1,2-thiazinan-2-yl)-3,4′-bipyridin-2′-yl]acetamide] |
